Source: patent US7906522B2, “2-aminoquinazoline derivatives” (Kyowa Hakko Kirin Co., Ltd, priority 2005, dated 2011)

Experiments:
Activated human p38α = molecular target: T1, Activated human p38α (Homo sapiens, UniProt Q16539); experiment: p38MAP kinase inhibition test; type: biochemical; settings: at a concentration of 1 μmol/L; substrate myelin basic protein, ATP 20 μmol/L, [γ-32P]ATP; read-out: enzyme inhibitory activity
T1 construct: purchased Upstate Biotechnology Inc. 14-251
How it was run: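 Radiometric kinase assay with myelin basic protein (20 μg/assay) as substrate, 20 μmol/L ATP plus [γ-32P]ATP, MOPS pH 7.2 with MgCl2 18.75 mmol/L. Reaction run 15 min at 30° C., stopped with phosphoric acid; 32P-MBP captured on phosphocellulose and counted by scintillation.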

T1 sequence (Q16539 whole entry): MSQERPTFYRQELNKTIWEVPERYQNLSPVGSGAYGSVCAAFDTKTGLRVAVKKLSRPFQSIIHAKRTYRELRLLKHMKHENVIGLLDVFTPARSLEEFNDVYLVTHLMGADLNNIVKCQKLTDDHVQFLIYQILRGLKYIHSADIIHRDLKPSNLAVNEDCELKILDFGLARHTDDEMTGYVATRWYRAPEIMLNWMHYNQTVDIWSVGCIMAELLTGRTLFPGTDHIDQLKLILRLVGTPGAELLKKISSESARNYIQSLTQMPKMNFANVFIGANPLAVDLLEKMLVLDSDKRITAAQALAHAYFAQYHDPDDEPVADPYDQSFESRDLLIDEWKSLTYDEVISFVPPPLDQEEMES

Row | Structure (SMILES) | inhibition at 1 µM (Activated human p38α) [%] | melting point
1 | CCC(CC)Nc1ncc2cc(-c3cccc(NC(=O)c4ccnc(N5CCOCC5)c4)c3)c(O)cc2n1 [Compound 368, 2-(3-Pentylamino)-7-hydroxy-6-{3-[(2-morpholinopyridin-4-yl)carbonylamino]phenyl}quinazoline] | ≥ 50 | 154 to 155 °C
2 | Cc1cccc(C)c1Nc1ncc2cc(-c3cccc(NC(=O)c4ccnc(N5CCOCC5)c4)c3)c(O)cc2n1 [Compound 312, 2-(2,6-Dimethylanilino)-7-hydroxy-6-{3-[(2-morpholinopyridin-4-yl)carbonylamino]phenyl}quinazoline] | ≥ 50 | 185 °C
3 | CS(=O)(=O)N1CCC(Nc2ncc3cc(-c4ccccc4Cl)c(O)cc3n2)CC1 [Compound 156, 6-(2-Chlorophenyl)-7-hydroxy-2-[1-(methylsulfonyl)piperidin-4-ylamino]quinazoline] | ≥ 50 | 268 to 271 °C
4 | CC(C)Nc1ncc2cc(-c3cccc(NC(=O)c4cccc(N(C)C)c4)c3)c(O)cc2n1 [Compound 291, 6-{3-[(3-Dimethylaminophenyl)carbonylamino]phenyl}-7-hydroxy-2-(isopropylamino)quinazoline] | ≥ 50 | 150 °C
5 | Cc1ccc(C(=O)NC2CC2)cc1-c1cc2cnc(NC(C)C)nc2cc1O [Compound 322, 6-(5-Cyclopropylcarbamoyl-2-methylphenyl)-7-hydroxy-2-(isopropylamino)quinazoline] | ≥ 50 | 156 to 160 °C
6 | Cc1ccc(C(=O)Nc2cccc(N(C)C)c2)cc1-c1cc2cnc(NC(C)C)nc2cc1O [Compound 324, 6-{5-[(3-Dimethylaminophenyl)carbamoyl]-2-methylphenyl}-7-hydroxy-2-(isopropylamino)quinazoline] | ≥ 50 | 217 to 218 °C
7 | CC[C@H](C)Nc1ncc2cc(-c3ccccc3C)c(O)cc2n1 [Compound 169, (S)-2-(sec-Butylamino)-7-hydroxy-6-(2-methylphenyl)quinazoline] | ≥ 50 | 165 °C
8 | CC(C)Nc1ncc2cc(-c3cccc(C(=O)Nc4cccc(N(C)C)c4)c3)c(O)cc2n1 [Compound 325, 6-{3-[(3-Dimethylaminophenyl)carbamoyl]phenyl}-7-hydroxy-2-(isopropylamino)quinazoline] | ≥ 50 | 236 °C
9 | Cc1ccc(C(=O)NC2CC2)cc1-c1cc2cnc(Nc3c(C)cccc3C)nc2cc1O [Compound 317, 6-(5-Cyclopropylcarbamoyl-2-methylphenyl)-2-(2,6-dimethylanilino)-7-hydroxyquinazoline] | ≥ 50 | 210 to 213 °C
10 | CC(C)Nc1ncc2cc(-c3cccc(NC(=O)c4cccc(N5CCCCC5)c4)c3)c(O)cc2n1 [Compound 386, 7-Hydroxy-2-isopropylamino-6-{3-[3-(piperidino)benzoylamino]phenyl}quinazoline] | – | 230 °C
11 | Cc1ccccc1-c1cc2cnc(NC3CCCCC3)nc2cc1O [Compound 171, 2-(Cyclohexylamino)-7-hydroxy-6-(2-methylphenyl)quinazoline] | ≥ 50 | 158 °C
12 | Cc1c(F)cc(C(=O)NC2CC2)cc1-c1cc2cnc(NC(C)C)nc2cc1O [Compound 344, 6-(5-Cyclopropylcarbamoyl-3-fluoro-2-methylphenyl)-7-hydroxy-2-(isopropylamino)quinazoline] | ≥ 50 | 175 to 177 °C
13 | CC(C)Nc1ncc2cc(-c3cccc(C(=O)Nc4ccnc(N5CCOCC5)c4)c3)c(O)cc2n1 [Compound 342, 7-Hydroxy-2-isopropylamino-6-{3-[(2-morpholinopyridin-4-yl)carbamoyl]phenyl}quinazoline] | ≥ 50 | 255 to 257 °C
14 | CCC(CC)Nc1ncc2cc(-c3cc(C(=O)NC4CC4)ccc3C)c(O)cc2n1 [Compound 365, 6-(5-Cyclopropylcarbamoyl-2-methylphenyl)-2-(3-pentylamino)-7-hydroxyquinazoline] | ≥ 50 | 210 °C
15 | CCC(CC)Nc1ncc2cc(-c3cccc(NC(=O)c4ccnc(N5CCCC5)c4)c3)c(O)cc2n1 [Compound 382, 2-(3-Pentylamino)-7-hydroxy-6-{3-[2-(pyrrolidin-1-yl)pyridin-4-ylcarbonylamino]phenyl}quinazoline] | – | 194 °C
16 | CC[C@H](C)Nc1ncc2cc(-c3cc(C(=O)NC4CC4)ccc3C)c(O)cc2n1 [Compound 361, (S)-2-(sec-Butylamino)-6-(5-cyclopropylcarbamoyl-2-methylphenyl)-7-hydroxyquinazoline] | ≥ 50 | 153 °C
17 | Cc1ccc(-n2nc(C)cc2NC(=O)c2ccc(C)c(-c3cc4cnc(NC(C)C)nc4cc3O)c2)cc1 [Compound 357, 7-Hydroxy-2-isopropylamino-6-{2-methyl-5-[5-methyl-2-(4-methylphenyl)-2H-pyrazol-3-ylcarbamoyl]phenyl}quinazoline] | ≥ 50 | 173 to 175 °C
18 | CC(C)Nc1ncc2cc(-c3cccc(C(=O)Nc4cccc(N5CCOCC5)c4)c3)c(O)cc2n1 [Compound 328, 7-Hydroxy-2-isopropylamino-6-{3-[(3-morpholinophenyl)carbamoyl]phenyl}quinazoline] | ≥ 50 | 248 to 249 °C

Row | Structure (SMILES) | inhibition at 1 µM (Activated human p38α) [%] | melting point
19 | CC(C)Nc1ncc2cc(-c3cccc(C(=O)NC4CC4)c3)c(O)cc2n1 [Compound 334, 6-[3-(Cyclopropylcarbamoyl)phenyl]-7-hydroxy-2-(isopropylamino)quinazoline] | ≥ 50 | 250 °C (dec.)
20 | CC(C)Nc1ncc2cc(-c3cccc(NC(=O)c4cc(F)cc(N5CCCCC5)c4)c3)c(O)cc2n1 [Compound 370, 6-{3-[3-Fluoro-5-(piperidino)benzoylamino]phenyl}-7-hydroxy-2-(isopropylamino)quinazoline] | – | 215 to 217 °C
21 | CCS(=O)(=O)N1CCC(Nc2ncc3cc(-c4ccccc4Cl)c(O)cc3n2)CC1 [Compound 161, 6-(2-Chlorophenyl)-2-[1-(ethylsulfonyl)piperidin-4-ylamino]-7-hydroxyquinazoline] | ≥ 50 | 251 to 253 °C
22 | CC(C)Nc1ncc2cc(-c3cccc(NC(=O)c4ccnc(N5CCN(C)CC5)c4)c3)c(O)cc2n1 [Compound 374, 7-Hydroxy-2-isopropylamino-6-{3-[2-(4-methylpiperazin-1-yl)pyridin-4-ylcarbonylamino]phenyl}quinazoline] | – | 178 °C
23 | Cc1cc(F)ccc1-c1cc(C(=O)Nc2cccc(-c3cc4cnc(NC(C)C)nc4cc3O)c2)ccn1 [Compound 388, 6-{3-[2-(4-Fluoro-2-methylphenyl)pyridin-4-ylcarbonylamino]phenyl}-7-hydroxy-2-(isopropylamino)quinazoline] | – | 224 to 226 °C
24 | CC[C@H](C)Nc1ncc2cc(-c3cccc(NC(=O)c4ccnc(N5CCCC5)c4)c3)c(O)cc2n1 [Compound 384, (S)-2-(sec-Butylamino)-7-hydroxy-6-{3-[2-(pyrrolidin-1-yl)pyridin-4-ylcarbonylamino]phenyl}quinazoline] | – | 165 to 168 °C
25 | CC(C)Nc1ncc2cc(-c3cccc(NC(=O)c4cccc(N5CCCC5)c4)c3)c(O)cc2n1 [Compound 376, 7-Hydroxy-2-isopropylamino-6-{3-[3-(pyrrolidin-1-yl)benzoylamino]phenyl}quinazoline] | – | 235 to 236 °C
26 | CC(C)Nc1ncc2cc(-c3cccc(C(=O)Nc4ccnc(N5CCCC5)c4)c3)c(O)cc2n1 [Compound 372, 7-Hydroxy-2-isopropylamino-6-{3-[2-(pyrrolidin-1-yl)pyridin-4-ylcarbamoyl]phenyl}quinazoline] | – | 275 to 279 °C
27 | CCONC(=O)c1ccc(C)c(-c2cc3cnc(NC(C)C)nc3cc2O)c1 [Compound 380, 6-(5-Ethoxycarbamoyl-2-methylphenyl)-7-hydroxy-2-(isopropylamino)quinazoline] | – | 157 °C
28 | Cc1ccc(C(N)=O)cc1-c1cc2cnc(NC(C)C)nc2cc1O [Compound 378, 6-(5-Carbamoyl-2-methylphenyl)-7-hydroxy-2-(isopropylamino)quinazoline] | – | 235 to 236 °C
29 | COc1cc2nc(N[C@@H](C)CO)ncc2cc1-c1ccccc1C [Compound 165, (S)-2-(1-Hydroxy-2-propylamino)-7-methoxy-6-(2-methylphenyl)quinazoline] | ≥ 50 | –
30 | Cc1ccc(NC(=O)C2CC2)cc1-c1ccc2nc(NC(C)C)ncc2c1 [Compound 264, 6-(5-Cyclopropylcarbonylamino-2-methylphenyl)-2-(isopropylamino)quinazoline] | ≥ 50 | –
31 | COc1cc2nc(NC3CCN(S(C)(=O)=O)CC3)ncc2cc1-c1ccccc1C(=O)O [Compound 242, 6-(2-Carboxyphenyl)-7-methoxy-2-[1-(methylsulfonyl)piperidin-4-ylamino]quinazoline] | ≥ 50 | –
32 | CC(C)Nc1ncc2cc(-c3cccc(C(=O)NC4CC4)c3)ccc2n1 [Compound 270, 6-[3-(Cyclopropylcarbamoyl)phenyl]-2-(isopropylamino)quinazoline] | ≥ 50 | –
33 | COc1cc2nc(NC(C)(C)C)ncc2cc1-c1ccccc1C [Compound 167, 2-(tert-Butylamino)-7-methoxy-6-(2-methylphenyl)quinazoline] | ≥ 50 | –
34 | COc1cc2nc(NC(C)C)ncc2cc1-c1cccc(C)c1 [Compound 203, 2-Isopropylamino-7-methoxy-6-(3-methylphenyl)quinazoline] | ≥ 50 | –
35 | COc1cc2nc(NC(C)C)ncc2cc1-c1cc(NC(C)=O)ccc1C#N [Compound 227, 6-(5-Acetylamino-2-cyanophenyl)-2-isopropylamino-7-methoxyquinazoline] | ≥ 50 | –
